Reference: patent US10501449B2 (priority 2018, dated 2019)

biological target: hROMK (human Kir1.1) (Homo sapiens (Human), UniProt P48048); test: cell-based; conditions: CHO T-Rex hROMK stable cell line; thallium flux; 10-point concentration response curve; read-out: Human ROMK Th Flux IC50
Sequence (P48048 whole entry): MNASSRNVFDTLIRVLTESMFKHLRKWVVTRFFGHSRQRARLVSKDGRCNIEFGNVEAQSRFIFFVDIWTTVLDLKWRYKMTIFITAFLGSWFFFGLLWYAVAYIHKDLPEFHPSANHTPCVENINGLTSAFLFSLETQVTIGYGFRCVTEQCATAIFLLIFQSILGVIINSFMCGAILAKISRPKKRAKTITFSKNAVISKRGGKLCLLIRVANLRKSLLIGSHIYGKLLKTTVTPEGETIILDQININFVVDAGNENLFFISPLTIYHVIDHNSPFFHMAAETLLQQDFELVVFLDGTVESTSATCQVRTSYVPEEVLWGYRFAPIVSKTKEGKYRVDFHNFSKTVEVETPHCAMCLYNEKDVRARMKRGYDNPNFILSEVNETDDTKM

In order of rising IC50:
1. Cc1cc(-c2ncc(CN3C[C@@H](c4ccc5c(c4C)COC5=O)N[C@@H](C)C3)s2)ncc1C#N [Example 113-I, 4,4-methyl-6-(5-(((3S,5R)-3-methyl-5-(4-methyl-1-oxo-1,3-dihydroisobenzofuran-5-yl)piperazin-1-yl)methyl)thiazol-2-yl)nicotinonitrile]  25 nM
2. Cc1cc(-n2cc(CN3C[C@@H](c4ccc5c(c4C)COC5=O)N[C@@H](C)C3)oc2=O)ncc1C#N [Example 117-I, 4-methyl-6-(5-(((3S,5R)-3-methyl-5-(4-methyl-1-oxo-1,3-dihydroisobenzofuran-5-yl)piperazin-1-yl)methyl)-2-oxooxazol-3(2H)-yl)nicotinonitrile]  34 nM
3. Cc1c([C@@H]2CN(Cc3cnn(-c4ccc5oc(=O)n(C)c5c4)c3)CCN2)ccc2c1COC2=O [Example 58-I, (R)-3-methyl-5-(4-((3-(4-methyl-1-oxo-1,3-dihydroisobenzofuran-5-yl)piperazin-1-yl)methyl)-1H-pyrazol-1-yl) benzo[d]oxazol-2(3H)-one]  60 nM
4. Cc1c([C@@H]2CN(Cc3cnn(-c4cc(F)c5oc(=O)n(C)c5c4)c3)CCN2)ccc2c1COC2=O [Example 55-I, (R)-7-fluoro-3-methyl-5-(4-((3-(4-methyl-1-oxo-1,3-dihydroisobenzo-furan-5-yl)piperazin-1-yl)methyl)-1H-pyra-zol-1-yl)benzo[d]oxazol-2(3H)-one]  86 nM
5. Cc1c([C@@H]2CN(Cc3cnn(-c4cccc(C#N)c4)c3)CCO2)ccc2c1COC2=O [Example 43-I, (R)-3-(4-((2-(4-methyl-1-oxo-1,3-dihydroiso-benzofuran-5-yl)morpho-lino)methyl)-1H-pyrazol-1-yl)benzonitrile]  110 nM
6. COc1c(CN2CCN[C@H](c3ccc4c(c3C)COC4=O)C2)cnn1-c1ccc2oc(=O)n(C)c2c1 [Example 54-I, (R)-5-(5-methoxy-4-((3-(4-methyl-1-oxo-1,3-dihydroisobenzofuran-5-yl)piperazin-1-yl)methyl)-1H-pyrazol-1-yl)-3-methylbenzo[d] oxazol-2(3H)-one]  110 nM
7. Cc1cc(-n2cc(CN3C[C@@H](c4ccc5c(c4C)COC5=O)NS3(=O)=O)cn2)ncc1C#N [Example 119-I, (R)-4-methyl-6-(4-((4-(4-methyl-1-oxo-1,3-dihydroisobenzofuran-5-yl)-1,1-dioxido-1,2,5-thiadiazolidin-2-yl)methyl)-1H-pyrazol-1-yl)nicotinonitrile]  140 nM
8. COc1cc(-n2cc(CN3CCN[C@H](c4ccc5c(c4C)COC5=O)C3)cn2)cc2c1oc(=O)n2C [Example 56-I, (R)-7-methoxy-3-methyl-5-(4-((3-(4-methyl-1-oxo-1,3-dihydroiso-benzofuran-5-yl)piperazin-1-yl)methyl)-1H-pyrazol-1-yl)benzo[d] oxazol-2(3H)-one]  150 nM
9. Cc1c([C@@H]2CN(Cc3ccc(-n4cnc(C#N)n4)nc3)CC(=O)N2)ccc2c1COC2=O [Example 73-I, (R)-1-(5-((3-(4-methyl-1-oxo-1,3-dihydroiso-benzofuran-5-yl)-5-oxo-piperazin-1-yl)methyl)pyridin-2-yl)-1H-1,2,4-triazole-3-carbonitrile]  150 nM
10. Cc1c([C@@H]2CN(Cc3ccc(-c4ccc(=O)n(C)n4)nc3)C[C@H](C)N2)ccc2c1COC2=O [Example 120-I, 2-methyl-6-(5-(((3S,5R)-3-methyl-5-(4-methyl-1-oxo-1,3-dihydroisobenzofuran-5-yl)piperazin-1-yl)methyl)pyridin-2-yl)pyridazin-3(2H)-one]  160 nM
11. Cc1c([C@@H]2CN(Cc3nnc(-c4ccc(C#N)cn4)o3)CCN2)ccc2c1COC2=O [Example 62-I, (R)-6-(5-((3-(4-methyl-1-oxo-1,3-dihydroiso-benzofuran-5-yl)piper-azin-1-yl)methyl)-1,3,4-oxadiazol-2-yl) nicotinonitrile]  170 nM
12. Cc1cc(-c2nc(CN3CC[C@@H](O)[C@H](c4ccc5c(c4C)COC5=O)C3)co2)ncc1C#N [Example 132-I, 6-(4-(((3R,4R)-4-hydroxy-3-(4-methyl-1-oxo-1,3-dihydroisobenzofuran-5-yl)piperidin-1-y)methyl)oxazol-2-yl)-4-methylnicotinonitrile]  170 nM
13. Cc1c([C@@H]2CN(Cc3cnn(-c4ccc5oc(=O)n(C)c5c4C)c3)CCN2)ccc2c1COC2=O [Example 135-I, (R)-3,4-dimethyl-5-(4-((3-(4-methyl-1-oxo-1,3-dihydroisobenzofuran-5-yl)piperazin-1-yl)methyl)-1H-pyrazol-1-yl)benzo[d]oxazol-2(3H)-one]  170 nM
14. Cc1c([C@@H]2CN(Cc3cnn(-c4ccncc4)c3)CCO2)ccc2c1COC2=O [Example 44-I, (R)-4-methyl-5-(4-((1-(pyridin-4-yl)-1H-pyrazol-4-yl)methyl)morpholin-2-yl)isobenzo-furan-1(3H)-one]  200 nM
15. Cc1cc(-n2cc(CN3C[C@@H](c4ccc5c(c4C)COC5=O)NC3=O)cn2)ncc1C#N [Example 118-I, (R)-4-methyl-6-(4-((4-(4-methyl-1-oxo-1,3-dihydroisobenzofuran-5-yl)-2-oxoimidazolidin-1-yl)methyl)-1H-pyrazol-1-yl)nicotinonitrile]  290 nM
16. Cc1cn(-c2ccc(CN3CC(=O)N[C@H](c4ccc5c(c4C)COC5=O)C3)cn2)cn1 [Example 76-I, (R)-6-(4-methyl-1-oxo-1,3-dihydroisobenzo-furan-5-yl)-4-((6-(4-methyl-1H-imidazol-1-yl)pyridin-3-yl)methyl) piperazin-2-one]  300 nM
17. COc1c(CN2C[C@@H](c3ccc4c(c3C)COC4=O)OC2=O)cnn1-c1cc(C)c(C#N)cn1 [Example 79-I, (R)-6-(5-methoxy-4-((5-(4-methyl-1-oxo-1,3-dihydroisobenzofuran-5-yl)-2-oxooxazolidin-3-yl)methyl)-1H-pyrazol-1-yl)-4-methyl-nicotinonitrile]  320 nM
18. Cc1c([C@@H]2CN(Cc3cnn(-c4ccc(S(C)(=O)=O)cc4)c3)CCO2)ccc2c1COC2=O [Example 45-I, (R)-4-methyl-5-(4-((1-(4-(methylsulfonyl)phenyl)-1H-pyrazol-4-yl)methyl)morpholin-2-yl)isobenzofuran-1(3H)-one]  370 nM
19. Cc1cc(-n2ccc(CN3CCO[C@H](c4ccc5c(c4C)COC5=O)C3)n2)ncc1C#N [Example 53-I, (R)-4-methyl-6-(3-((2-(4-methyl-1-oxo-1,3-dihydroisobenzofuran-5-yl)morpholino)methyl)-1H-pyrazol-1-yl) nicotinonitrile]  370 nM
20. Cc1c([C@@H]2CN(Cc3cnn(-c4ccc5oc(=O)n(C)c5c4)c3)C(=O)O2)ccc2c1COC2=O [Example 80-I, (R)-3-methyl-5-(4-((5-(4-methyl-1-oxo-1,3-dihydroisobenzofuran-5-yl)-2-oxooxazolidin-3-yl)methyl)-1H-pyrazol-1-yl)benzo[d]oxazol-2(3H)-one]  490 nM
21. Cc1c([C@@H]2CN(Cc3cn(-c4ccc5oc(=O)n(C)c5c4)nn3)CC(=O)N2)ccc2c1COC2=O [Example 72-I, (R)-3-methyl-5-(4-((3-(4-methyl-1-oxo-1,3-dihydroisobenzofuran-5-yl)-5-oxopiperazin-1-yl)methyl)-1H-1,2,3-triazol-1-yl)benzo[d] oxazol-2(3H)-one]  550 nM
22. COc1cc(-c2ccc(CN3CC(=O)N[C@H](c4ccc5c(c4C)COC5=O)C3)cn2)ncc1C#N [Example 74-I, (R)-4-methoxy-5′-((3-(4-methyl-1-oxo-1,3-di-hydroisobenzofuran-5-yl)-5-oxopiperazin-1-yl)methyl)-[2,2′-bi-pyridine]-5-carbonitrile]  570 nM
23. Cc1c([C@@H]2CN(Cc3cnn(-c4ccn5nccc5n4)c3)CCO2)ccc2c1COC2=O [Example 50-I, (R)-4-methyl-5-(4-((1-(pyrazolo[1,5-a]pyrimidin-5-yl)-1H-pyrazol-4-yl)methyl)morpholin-2-yl)isobenzofuran-1(3H)-one]  670 nM
24. Cc1ncn(-c2ccc(CN3CC(=O)N[C@H](c4ccc5c(c4C)COC5=O)C3)cn2)n1 [Example 75-I, (R)-6-(4-methyl-1-oxo-1,3-dihydroisobenzo-furan-5-yl)-4-((6-(3-methyl-1H-1,2,4-triazol-1-yl)pyridin-3-yl)methyl) piperazin-2-one]  680 nM
25. Cc1c([C@@H]2CN(Cc3cnn(-c4ccc5oc(=O)n(C)c5c4)c3)CC(=O)N2)ccc2c1COC2=O [Example 71-I, (R)-3-methyl-5-(4-((3-(4-methyl-1-oxo-1,3-dihydroisobenzofuran-5-yl)-5-oxopiperazin-1-yl)methyl)-1H-pyrazol-1-yl)benzo[d]oxazol-2(3H)-one]  800 nM
26. COc1cc(-n2cnc(CN3C[C@@H](c4ccc5c(c4C)COC5=O)OC3=O)c2)ncc1C#N [Example 78-I, (R)-4-methoxy-6-(4-((5-(4-methyl-1-oxo-1,3-dihydroisobenzofuran-5-yl)-2-oxooxazolidin-3-yl)methyl)-1H-imidazol-1-yl)nicotinonitrile]  810 nM
27. Cc1cc(-n2cc(CN3CC(=O)N(C)[C@H](c4ccc5c(c4C)COC5=O)C3)cn2)ncc1C#N [Example 77-I, (R)-4-methyl-6-(4-((4-methyl-3-(4-methyl-1-oxo-1,3-dihydroisobenzo-furan-5-yl)-5-oxo-piperazin-1-yl)methyl)-1H-pyrazol-1-yl)nicotino-nitrile]  820 nM
28. Cc1cc(-n2cc(CN3CCN(S(C)(=O)=O)[C@H](c4ccc5c(c4C)COC5=O)C3)cn2)ncc1C#N [Example 69-I, (R)-4-methyl-6-(4-((3-(4-methyl-1-oxo-1,3-dihydroisobenzofuran-5-yl)-4-(methylsulfonyl)piperazin-1-yl)methyl)-1H-pyrazol-1-yl) nicotinonitrile]  900 nM
29. CC(=O)N1CCN(Cc2cnn(-c3cc(C)c(C#N)cn3)c2)C[C@H]1c1ccc2c(c1C)COC2=O [Example 68-I, (R)-6-(4-((4-acetyl-3-(4-methyl-1-oxo-1,3-di-hydroisobenzofuran-5-yl)piperazin-1-yl)methyl)-1H-pyrazol-1-yl)-4-methylnicotinonitrile]  1700 nM
